Experimental data published in patent US8691874B2, “Treatment of ophthalmic disorders using urea” (Kato Pharmaceuticals, Inc., priority 2000, dated 2014).
“And” between values parts separate entries of the source, which are not always exact repeats. Identical values can stand only once. Like-named read-outs stand apart in the source and are kept apart here.

Legend:
[1] = system: stage 3 idiopathic macular hole patient; test: Intravitreal urea followed by C3F8 gas in a patient with idiopathic macular hole (Example II); assay type: in vivo, human; settings: for visual acuity: baseline 20/400; for size of the macular hole: baseline 450 μm
Procedure: The macular defect was classified as a stage 3 macular hole, and the patient's visual acuity was recorded at 20/400 at a baseline time point prior to urea treatment. […] Seven days after the intravitreal urea injection the patient was administered an intravitreal injection of 0.3 ml of expandable gas (C3F8).
One week after administration of the gas, the size of the macular hole had decreased from 450 μm to a smaller size of 200 μm and the patient's vision had improved from a baseline visual acuity of 20/400 to 20/80. Two weeks post treatment the size of the macular hole had decreased from 450 μm to a smaller size of 90 μm and the patient's vision had improved from a baseline visual Acuity of 20/400 to 20/70. Four weeks post treatment the size of the macular hole had decreased from 450 μm to a smaller size of 60 μm and the patient's vision had improved from a baseline visual acuity of 20/400 to 20/60.

[2] = system: human patients with optic nerve damage caused by trauma and/or glaucoma; test: Double masked placebo controlled dose escalation study in optic nerve damage (Example VIII); assay type: in vivo
Procedure: In accordance with the present invention, urea, thiourea, guanidine and possibly the other compounds of General Formula I above are effective to treat neuropathies (e.g., disorders or damage to nerves). In this example, 33 non sighted patients with optic nerve damage caused by trauma and/or glaucoma, with visual acuity of light perception or no light perception were administered a urea-containing formulation, as disclosed herein. The study was a double masked placebo controlled, randomized, dose escalation study conducted with 33 human patients with optic nerve damage. Patients were randomized into 5 groups, Group 1 of 5 patients, Group 2 of 4 patients, Group 3 of 8 patients, Group 4 of 8 patients and Group 5 of 8 patients. Each patient received a single intravitreal injection of 50 μl of an aqueous treatment solution, as follows:
In Six patients the vision improved from No light perception to light perception, in 2 patients the vision improved from light perception to count fingers at 12 inches, in 2 patients the vision improved from no light perception to 20/400 and 20/800 vision and in 2 patients the vision improved from light perception to 20/600 and 20/800 vision. No patients in the placebo group reported any improvement in best corrected visual acuity as measured by ETDRS charts.

[3] = system: human patients with diabetes-related nonclearing vitreous hemorrhage; test: Treatment of vitreous hemorrhage (Example IV); assay type: in vivo
Procedure: The formulations and treatments disclosed herein are also effective to treat vitreous hemorrhage. In this example, seven human patients were treated for diabetes-related nonclearing vitreous hemorrhage. Each patient received a single intravitreal injection of 100 μl of a formulation containing urea. The formulation used in this example contained 6% urea, 0.9% sodium chloride, and sterile water for injection (qs 100%).

[4] = system: human patients with retinitis pigmentosa; test: Double masked placebo controlled dose escalation study in retinitis pigmentosa (Example VII); assay type: in vivo
Procedure: A double masked placebo controlled, randomized, dose escalation study was done in 32 human patients with retinitis pigmentosa. All patients were treated with a single intravitreal injection of 50 μl of a urea-containing formulation. Three groups of patients received different concentrations of urea. One group received a formulation containing 1.5% urea, 0.9% sodium chloride, and sterile water for injection. A second group received an identical formulation except the formulation contained 3.0% urea. A third group received an identical formulation except the formulation contained 6.0% urea. A placebo group received 50 μl of 0.9% sodium chloride.
Forty-seven percent of the patient reported an increase of at least 3 lines of best corrected visual acuity measured by ETDRS charts, whereas, only 14% of the placebo patients reported an increase of at least 3 lines of best corrected visual acuity measured by ETDRS charts.
There was no dramatic increase in the visual field of the placebo control patients.

[5] = system: posterior vitreous of rabbits; test: Injection of urea into the vitreous, specialized histological techniques in rabbits; assay type: in vivo; settings: after urea treatment
Source text: (§1) In addition, disinsertion of the posterior vitreous has been observed in patients by the use of slit lamp biomicroscopy and in rabbits by specialized histological techniques after urea treatment.

[6] = system: patients with nonproliferative diabetic retinopathy; test: Treatment of nonproliferative diabetic retinopathy (Example VI); assay type: in vivo, human
Procedure: Sixty-nine patients with nonproliferative diabetic retinopathy were each administered a single intravitreal injection of 50 μl of a urea formulation containing 3% urea, 0.9% sodium chloride, and sterile water for injection.
The vitreous liquefaction and vitreous collapse in nonproliferative diabetic retinopathy patients would inhibit the growth and proliferation of the blood vessels, and thus inhibit the progression of diabetic retinopathy. All 69 (of the) patients were followed for six months following the procedure.

[7] = cited from earlier work
[8] = system: human patients with single or multiple retinal tears; test: Intravitreal urea 3 days before pneumatic Retinopexy in patients with retinal tears (Example I); assay type: in vivo
Procedure: All patients received pneumatic Retinopexy treatment 3 days after intravitreal injection of 1.5 mg of urea in 50 μl of aqueous solution prepared according to the formulation set forth in Table 11 above. […] Within 3-7 days after urea injection, 11/12 patients had developed PVD, only 1/12 patients had not developed PVD. Within 90 days of the urea injection that one patient also developed PVD.
Within 3 days of treatment 9/12 patients had complete retinal reattachment and macular attachment, and within 7 days all 12 patients had complete retinal reattachment and macular attachment.
(Tornambe, P. E. et. al. Opthalmology, 1989; 96: 772-783).

[9] = cited from earlier work; remark: listed apart in the source
[10] = system: patients with optic nerve damage related to optic nerve tumors; test: Treatment of optic nerve damage related to optic nerve tumors (Example VIII); assay type: in vivo, human
Procedure: In another study, three patients with long standing (6 months or longer) optic nerve damage related to optic nerve tumors were treated with a single intravitreal injection of 100 μl of a 6% urea containing formulation. All three patient treated reported a significant improvement in visual acuity after treatment. The patients' visual acuity improved from an average of Count Fingers at 12 inches to 20/200.

[11] = system: human patients requiring pars plana vitrectomy; test: Intravitreal urea as adjunct to vitrectomy (Example V); assay type: in vivo
Procedure: In this example, five human patients requiring pars plana vitrectomy for various indications were treated one week prior to vitrectomy with a single intravitreal injection of 100 μl of a urea in aqueous solution. The formulation contained 6% urea, 0.9% sodium chloride, and sterile water for injection (qs 100%). All patients underwent routine vitrectomies 8 to 10 days after the urea injection. The minimum waiting time between the urea injection and the vitrectomy procedure is about 1 day to 3 days.
No vitrectomy cutter was used.

[12] = system: vitreous body of patients; test: Injection of urea into the vitreous, slit lamp biomicroscopy in patients; assay type: in vivo, human
Source text: as §1

[13] = 10% water solution; cited from earlier work
[14] = one week after administration of the gas

For `NC(N)=O` [urea], which “adverse effects of the intravitreal injection, ophthalmoscopic and biomicroscopic examination” value ([1]; 1.5 mg urea in 50 μl) is on record?
Its value is “no adverse effects”.

And the visual acuity ([1]; four weeks post treatment)?
Its visual acuity is 20/60.

What about the “size of the macular hole” value ([1]; four weeks post treatment) of the same compound?
The value was 60 μm.

And the visual acuity [1, 14]?
Its visual acuity is 20/80.

What about the “size of the macular hole” value [1, 14] of the same compound?
Its value is 200 μm.

And the “time to complete Posterior Vitreous Detachment (PVD)” value ([1]; single intravitreal 1.5 mg urea in 50 μl, Table III formulation)?
Its value is at most 7 days.

And the visual acuity ([1]; two weeks post treatment)?
The visual acuity was 20/70.

What about the “size of the macular hole” value ([1]; two weeks post treatment) of the same compound?
Its value is 90 μm.

What about the “patients whose vision improved from No light perception to light perception” value ([2]; 50 μl of 0.2-6.0% urea) of the same compound?
The value was “Six”.

And the “patients whose vision improved from light perception to 20/600 and 20/800 vision” value ([2]; 50 μl of 0.2-6.0% urea)?
Its value is 2 patients.

And the “patients whose vision improved from light perception to count fingers at 12 inches” value ([2]; 50 μl of 0.2-6.0% urea)?
The value was 2 patients.

And the “patients whose vision improved from no light perception to 20/400 and 20/800 vision” value ([2]; 50 μl of 0.2-6.0% urea)?
The value was 2 patients.

What about the “patients with increase of best corrected visual acuity measured by ETDRS charts” value ([2]; single intravitreal 50 μl of 0.2%, 1.5%, 3.0% or 6.0% urea) of the same compound?
The value was “Forty-three”.

What about the “rate of hemorrhagic blood clearance compared with normal clearance rates in clinical practice” value ([3]; 100 μl of 6% urea) of the same compound?
Its value is “significantly accelerated”.

And the “patients with clearance of vitreous hemorrhage sufficient to treat the retina with photocoagulation” value ([3]; single intravitreal 100 μl of 6% urea, 0.9% sodium chloride, seven patients)?
The value was “All seven”.

What about the “patients with increase of at least 3 lines of best corrected visual acuity measured by ETDRS charts” value ([4]; single intravitreal 50 μl of 1.5%, 3.0% or 6.0% urea, groups pooled) of the same compound?
The value was “Forty-seven”.

And the “average improvement in the patient's visual field” value ([4]; urea-treated patients)?
Its value is 10 degrees.

What about the “disinsertion of the posterior vitreous” value [5] of the same compound?
Its value is “observed”.

What about the “time to complete vitreous liquefaction and collapse after administration” value ([6]; 50 μl of 3% urea) of the same compound?
Its value is 2-4 weeks.

And the “patients with complete vitreous liquefaction and collapse” value ([6]; single intravitreal 50 μl of 3% urea, 0.9% sodium chloride)?
Its value is 69 patients.

What about the solubility ([7]; in chloroform or ether) of the same compound?
The solubility was “practically insoluble”.

What about the solubility ([7]; in water, ethanol, methanol and glycerol) of the same compound?
Its solubility is “very soluble”.

And the “adverse effects of the intravitreal injection, ophthalmoscopic and biomicroscopic examination” value ([8]; 1.5 mg urea in 50 μl intravitreal, 12 patients)?
Its value is “no adverse effects”.

And the “average improvement of visual acuity per patient” value ([8]; 6 months after Retinopexy)?
The value was 4.2 lines and 21 letters.

What about the “patients with improvement of more than 2 lines of visual acuity (11 letters)” value ([8]; 6 months post Retinopexy) of the same compound?
Its value is 64%.

What about the “occurrence of new retinal tears with associated retinal detachment” value ([8]; 90 days follow up) of the same compound?
The value was “none of the patients”.

What about the “time by which the one remaining patient developed PVD” value ([8]; after urea injection, 1.5 mg in 50 μl) of the same compound?
The value was at most 90 days.

And the “patients with improvement of more than 2 lines of visual acuity (11 letters)” value ([8]; urea 3 days prior to pneumatic Retinopexy, time point not given)?
The value was 64%.

And the “patients who had developed PVD” value ([8]; within 3-7 days after urea injection, 1.5 mg in 50 μl)?
The value was 11/12.

What about the “patients with complete retinal reattachment and macular attachment” value ([8]; within 3 days of treatment) of the same compound?
Its value is 9/12.

What about the “patients with complete retinal reattachment and macular attachment” value ([8]; within 7 days) of the same compound?
Its value is 12 patients.

What about the stability ([9]; aqueous urea solutions, develop an odor of ammonia) of the same compound?
Its stability is “gradually degrade”.

And the stability ([9]; stored under dry conditions at room temperature)?
Its stability is “stable”.

And the “average visual acuity after treatment” value ([10]; from an average of Count Fingers at 12 inches, 100 μl of 6% urea)?
The value was 20/200.

What about the “patients reporting a significant improvement in visual acuity after treatment” value ([10]; single intravitreal 100 μl of 6% urea, three patients) of the same compound?
Its value is “All three”.

And the “decrease in surgical time relative to patients who did not receive urea” value ([11]; 100 μl of 6% urea one week prior to vitrectomy)?
The value was 70%.

And the “vitreous liquefaction and collapse” value ([11]; by one week after single intravitreal 100 μl of 6% urea, five patients)?
Its value is “complete vitreous liquefaction and collapse”.

And the “liquefaction of the vitreous body and breakdown of hyaluronic acid of the vitreous” value ([12]; after injection of urea into the vitreous)?
The value was “within several days”.

What about the “disinsertion of the posterior vitreous” value ([12]; patients, slit lamp biomicroscopy, after urea treatment) of the same compound?
Its value is “observed”.

And the pH [13]?
The pH was 7.2.
